Results published in US20220257592A1, “METHODS OF TREATING CANCER” (HOFFMANN-LA ROCHE INC., priority 2019, published 2022).

Assay: Clinical trial safety, ALKA, STARTRK-1, STARTRK-2, STARTRK-NG (interim, N=355)
Details: for Balance disorder / Confusional state / Dizziness / Headache / Paresthesia: CNS metastases
[1] = no prior CNS irradiation (N=48)
[2] = among the 32 patients with hyperuricemic adverse reactions
[3] = among the 36 patients with mood disorders
[4] = among the 51 patients with sleep disturbances
[5] = among the 96 patients with cognitive impairment
[6] = among the 136 patients who experienced dizziness
[7] = clinically relevant adverse reactions in ≤10% of patients

CN1CCN(c2ccc(C(=O)Nc3n[nH]c4ccc(Cc5cc(F)cc(F)c5)cc34)c(NC3CCOCC3)c2)CC1 [Entrectinib, N-[5-(3,5-difluorobenzyl)-1H-indazol-3-yl]-4-(4-methyl-piperazin-1-yl)-2-(tetrahydro-pyran-4-ylamino)-benzamide]
CHF, median time to onset (12 patients with CHF, range: 11 days to 12 months): 2 months | Congestive heart failure (355 patients): 3.4% | Congestive heart failure, Grade 3 (355 patients): 2.3% | Hyperuricemia reported as adverse reactions with symptoms, as well as elevated uric acid levels (355 patients): 9% | Increased ALT of any grade (355 patients): 36% | Increased AST of any grade (355 patients): 42% | Balance disorder [1]: 4% | Confusional state [1]: 2% | Dizziness [1]: 31% | Headache [1]: 13% | Paresthesia [1]: 6% | Balance disorder (prior CNS irradiation (N=90)): 13% | Confusional state (prior CNS irradiation (N=90)): 11% | Dizziness (prior CNS irradiation (N=90)): 38% | Headache (prior CNS irradiation (N=90)): 21% | Paresthesia (prior CNS irradiation (N=90)): 20% | Abdominal pain, All Grades (N = 355): 16% | Arthralgia, All Grades (N = 355): 21% | Ataxia, All Grades (N = 355): 17% | Back pain, All Grades (N = 355): 12% | Cognitive impairment, All Grades (N = 355): 27% | Constipation, All Grades (N = 355): 46% | Cough, All Grades (N = 355): 24% | Decreased appetite, All Grades (N = 355): 13% | Dehydration, All Grades (N = 355): 10% | Diarrhea, All Grades (N = 355): 35% | Dizziness, All Grades (N = 355): 38% | Dysesthesia, All Grades (N = 355): 34% | Dysgeusia, All Grades (N = 355): 44% | Dyspnea, All Grades (N = 355): 30% | Edema, All Grades (N = 355): 40% | Fatigue, All Grades (N = 355): 48% | Headache, All Grades (N = 355): 18% | Hypotension, All Grades (N = 355): 18% | Increased weight, All Grades (N = 355): 25% | Lung infection, All Grades (N = 355): 10% | Mood disorders, All Grades (N = 355): 10% | Muscular weakness, All Grades (N = 355): 12% | Myalgia, All Grades (N = 355): 28% | Nausea, All Grades (N = 355): 34% | Pain in extremity, All Grades (N = 355): 11% | Peripheral sensory neuropathy, All Grades (N = 355): 18% | Pyrexia, All Grades (N = 355): 21% | Rash, All Grades (N = 355): 11% | Sleep (sleep disturbances), All Grades (N = 355): 14% | Urinary tract infection, All Grades (N = 355): 13% | Vision disorders, All Grades (N = 355): 21% | Vomiting, All Grades (N = 355): 24% | Abdominal pain, Grade ≥3 (N = 355, Grades 3-5): 0.6% | Arthralgia, Grade ≥3 (N = 355, Grades 3-5): 0.6% | Ataxia, Grade ≥3 (N = 355, Grades 3-5): 0.8% | Back pain, Grade ≥3 (N = 355, Grades 3-5): 1% | Cognitive impairment, Grade ≥3 (N = 355, Grades 3-5): 4.5% | Constipation, Grade ≥3 (N = 355, Grades 3-5): 0.6% | Cough, Grade ≥3 (N = 355, Grades 3-5): 0.3% | Decreased appetite, Grade ≥3 (N = 355, Grades 3-5): 0.3% | Dehydration, Grade ≥3 (N = 355, Grades 3-5): 1.1% | Diarrhea, Grade ≥3 (N = 355, Grades 3-5): 2.0% | Dizziness, Grade ≥3 (N = 355, Grades 3-5): 0.8% | Dysesthesia, Grade ≥3 (N = 355, Grades 3-5): 0.3% | Dysgeusia, Grade ≥3 (N = 355, Grades 3-5): 0.3% | Edema, Grade ≥3 (N = 355, Grades 3-5): 1.1% | Fatigue, Grade ≥3 (N = 355, Grades 3-5): 5% | Headache, Grade ≥3 (N = 355, Grades 3-5): 0.3% | Hypotension, Grade ≥3 (N = 355, Grades 3-5): 2.8% | Increased weight, Grade ≥3 (N = 355, Grades 3-5): 7% | Mood disorders, Grade ≥3 (N = 355, Grades 3-5): 0.6% | Muscular weakness, Grade ≥3 (N = 355, Grades 3-5): 0.8% | Myalgia, Grade ≥3 (N = 355, Grades 3-5): 1.1% | Nausea, Grade ≥3 (N = 355, Grades 3-5): 0.3% | Pain in extremity, Grade ≥3 (N = 355, Grades 3-5): 0.3% | Peripheral sensory neuropathy, Grade ≥3 (N = 355, Grades 3-5): 1.1% | Pyrexia, Grade ≥3 (N = 355, Grades 3-5): 0.8% | Rash, Grade ≥3 (N = 355, Grades 3-5): 0.8% | Sleep (sleep disturbances), Grade ≥3 (N = 355, Grades 3-5): 0.6% | Urinary tract infection, Grade ≥3 (N = 355, Grades 3-5): 2.3% | Vision disorders, Grade ≥3 (N = 355, Grades 3-5): 0.8% | Vomiting, Grade ≥3 (N = 355, Grades 3-5): 0.8% | CHF resolved following interruption or discontinuation and medical management (among the 12 patients with CHF): 50% | entrectinib discontinued due to CHF (among the 12 patients with CHF): 17% | entrectinib interrupted due to CHF (among the 12 patients with CHF): 50% | Dose interruption due to hyperuricemia [2]: 6% | Dose reduction due to hyperuricemia [2]: 6% | Required urate-lowering medication [2]: 34% | Discontinuation due to mood disorders [3]: no patients discontinued | Dose interruption due to mood disorders [3]: 6% | Dose reduction due to mood disorders [3]: 6% | Discontinuation due to sleep disturbances [4]: no patients discontinued | Dose reduction due to sleep disturbances [4]: 6% | Discontinued entrectinib due to cognitive adverse reactions [5]: 1% | Dose interruption due to cognitive adverse reactions [5]: 18% | Dose reduction due to cognitive adverse reactions [5]: 13% | Discontinued entrectinib due to dizziness [6]: 0.7% | Dose interruption due to dizziness [6]: 7% | Dose reduction due to dizziness [6]: Ten | Grade 3 dizziness [6]: 2.2% | Dysphagia [7]: 10% | Fall [7]: 8% | Fractures [7]: 6% | Hypoxia [7]: 4.2% | Pleural effusion [7]: 8% | Pulmonary embolism [7]: 3.9% | QT prolongation [7]: 3.1% | Syncope [7]: 3.9% | Increased AST or ALT leading to dose interruptions (first value of 'respectively'): 0.8% | Cognitive impairment: amnesia (human, in vivo): 2.5% | Cognitive impairment: aphasia (human, in vivo): 2.3% | Cognitive impairment: cognitive disorders (human, in vivo): 8% | Cognitive impairment: confusional state (human, in vivo): 7% | Cognitive impairment: delirium (human, in vivo): 0.8% | Cognitive impairment: disturbance in attention (human, in vivo): 4.8% | Cognitive impairment: hallucinations (human, in vivo): 1.1% | Cognitive impairment: memory impairment (human, in vivo): 3.7%
